The target of the test is human GABA A receptor α5β3γ2 (Homo sapiens (Human), UniProt P18507+P31644). Put plainly: [3H]flumazenil competition binding assay, human GABA A α5β3γ2 receptors expressed in HEK293 cells. The conditions noted are these: human receptor; displacement of [3H]flumazenil (0.5 nM); means of two determinations; read-out: hKi GABAAa5. The procedure, abridged:
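Ki values, each the mean of two runs, derive from displacement of [3H]flumazenil from human α5β3γ2 GABA A receptors transiently expressed in HEK293 membranes. Binding ran 1 h at 4° C in Krebs-tris, pH 7.5, before filter harvest and scintillation counting.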
Consider `Cc1onc(-c2ccccc2)c1COc1ccc(C(=O)NCC2(O)CC2)cn1` [Example 194, N-(1-Hydroxy-cyclopropylmethyl)-6-(5-methyl-3-phenyl-isoxazol-4-ylmethoxy)-nicotinamide], for which the Ki was 2.1 nM.
Consider `Cc1onc(-c2ccccc2)c1COc1ccc(C(=O)N[C@H](C)CO)cn1` [Example 195, N—((R)-2-Hydroxy-1-methyl-ethyl)-6-(5-methyl-3-phenyl-isoxazol-4-ylmethoxy)-nicotinamide], for which the Ki is 1.7 nM.
Regarding `Cc1onc(-c2ccccc2)c1COc1ccc(C(=O)N[C@@H](C)CO)cn1` [Example 196, N—((S)-2-Hydroxy-1-methyl-ethyl)-6-(5-methyl-3-phenyl-isoxazol-4-ylmethoxy)-nicotinamide], the Ki amounted to 0.7 nM.
`Cc1onc(-c2ccccc2)c1COc1ccc(C(=O)N[C@@H]2CCCC[C@H]2O)cn1` [Example 197, N-((1R,2R)-2-Hydroxy-cyclohexyl)-6-(5-methyl-3-phenyl-isoxazol-4-ylmethoxy)-nicotinamide]: the Ki came to 11 nM.
`Cc1onc(-c2ccccc2)c1COc1ccc(C(=O)N[C@H]2CCCC[C@@H]2O)cn1` [Example 198, N-((1S,2S)-2-Hydroxy-cyclohexyl)-6-(5-methyl-3-phenyl-isoxazol-4-ylmethoxy)-nicotinamide]: the Ki worked out at 6.5 nM.
For `Cc1onc(-c2ccccc2)c1COc1ccc(C(=O)NC2CCCC2O)cn1` (stereo not shown) [Example 200, N-(2-Hydroxy-cyclopentyl)-6-(5-methyl-3-phenyl-isoxazol-4-ylmethoxy)-nicotinamide], the Ki is 3.9 nM.
Turning to `Cc1onc(-c2ccccc2)c1COc1ccc(C(=O)NC(CO)CO)cn1` [Example 201, N-(2-Hydroxy-1-hydroxymethyl-ethyl)-6-(5-methyl-3-phenyl-isoxazol-4-ylmethoxy)-nicotinamide], the Ki was determined as 1.7 nM.
With `Cc1onc(-c2ccccc2)c1COc1ccc(C(=O)N[C@H]2CCOC2)cn1` [Example 202, 6-(5-Methyl-3-phenyl-isoxazol-4-ylmethoxy)-N—(S)-tetrahydro-furan-3-yl-nicotinamide] the figure was 1.6 nM; with `CC(=O)NCCNC(=O)c1ccc(OCc2c(-c3ccccc3)noc2C)nc1` [Example 205, N-(2-Acetylamino-ethyl)-6-(5-methyl-3-phenyl-isoxazol-4-ylmethoxy)-nicotinamide], 4 nM; with `Cc1onc(-c2ccccc2)c1COc1ccc(C(=O)N[C@H](CO)C(C)C)cn1` [Example 206, N—((S)-1-Hydroxymethyl-2-methyl-propyl)-6-(5-methyl-3-phenyl-isoxazol-4-ylmethoxy)-nicotinamide], 1.8 nM.
Consider `Cc1onc(-c2ccccc2)c1COc1ccc(C(=O)N[C@H](CO)CC(C)C)cn1` [Example 207, N—((S)-1-Hydroxymethyl-3-methyl-butyl)-6-(5-methyl-3-phenyl-isoxazol-4-ylmethoxy)-nicotinamide], for which the Ki was found to be 10.9 nM.
`CC[C@@H](CO)NC(=O)c1ccc(OCc2c(-c3ccccc3)noc2C)nc1` [Example 208, N—((S)-1-Hydroxymethyl-propyl)-6-(5-methyl-3-phenyl-isoxazol-4-ylmethoxy)-nicotinamide]: the Ki is 0.7 nM.
`CC[C@H](CO)NC(=O)c1ccc(OCc2c(-c3ccccc3)noc2C)nc1` [Example 209, N—((R)-1-Hydroxymethyl-propyl)-6-(5-methyl-3-phenyl-isoxazol-4-ylmethoxy)-nicotinamide]: the Ki was 2.3 nM.
Consider `Cc1onc(-c2ccccc2)c1COc1ccc(C(=O)NCCN2CCNC2=O)cn1` [Example 214, 6-(5-Methyl-3-phenyl-isoxazol-4-ylmethoxy)-N-[2-(2-oxo-imidazolidin-1-yl)-ethyl]-nicotinamide], for which the Ki is 4.3 nM.
`Cc1onc(-c2ccccc2)c1COc1ccc(C(=O)NCCC(C)O)cn1` (stereo not shown) [Example 215, N-(3-Hydroxy-butyl)-6-(5-methyl-3-phenyl-isoxazol-4-ylmethoxy)-nicotinamide]: the Ki was found to be 2.3 nM.
With `Cc1onc(-c2ccccc2)c1COc1ccc(C(=O)NC2CN(C(=O)OC(C)(C)C)C2)cn1` [Example 216, 3-{[6-(5-Methyl-3-phenyl-isoxazol-4-ylmethoxy)-pyridine-3-carbonyl]-amino}-azetidine-1-carboxylic acid tert-butyl ester], the Ki was 4.5 nM.
On to `Cc1onc(-c2ccccc2)c1COc1ccc(C(=O)NCCNC(=O)OC(C)(C)C)cn1` [Example 217, (2-{[6-(5-Methyl-3-phenyl-isoxazol-4-ylmethoxy)-pyridine-3-carbonyl]-amino}-ethyl)-carbamic acid tert-butyl ester], for which the Ki was found to be 8.4 nM.
For the compound `Cc1onc(-c2ccccc2)c1COc1ccc(C(=O)NCC(O)CO)cn1` (stereo not shown) [Example 218, N-(2,3-Dihydroxy-propyl)-6-(5-methyl-3-phenyl-isoxazol-4-ylmethoxy)-nicotinamide], the Ki is 2 nM.
For the compound `Cc1onc(-c2ccccc2)c1COc1ccc(C(=O)NCCCO)cn1` [Example 219, N-(3-Hydroxy-propyl)-6-(5-methyl-3-phenyl-isoxazol-4-ylmethoxy)-nicotinamide], the Ki turned out to be 2.2 nM.
Take `Cc1onc(-c2ccccc2)c1COc1ccc(C(=O)NCCCCO)cn1` [Example 220, N-(4-Hydroxy-butyl)-6-(5-methyl-3-phenyl-isoxazol-4-ylmethoxy)-nicotinamide]: the Ki stood at 2.6 nM.
Consider `Cc1onc(-c2ccccc2)c1COc1ccc(C(=O)NCCCCCO)cn1` [Example 221, N-(5-Hydroxy-pentyl)-6-(5-methyl-3-phenyl-isoxazol-4-ylmethoxy)-nicotinamide], for which the Ki is 4.1 nM.
On to `Cc1onc(-c2ccccc2)c1COc1ccc(C(=O)NCCCCCCO)cn1` [Example 222, N-(6-Hydroxy-hexyl)-6-(5-methyl-3-phenyl-isoxazol-4-ylmethoxy)-nicotinamide], for which the Ki came out at 8.2 nM.
On to `Cc1onc(-c2ccccc2)c1COc1ccc(C(=O)N2CCC(O)C2)cn1` (stereo not shown) [Example 223, (3-Hydroxy-pyrrolidin-1-yl)-[6-(5-methyl-3-phenyl-isoxazol-4-ylmethoxy)-pyridin-3-yl]-methanone], for which the Ki is 26.1 nM.
In the case of `Cc1onc(-c2ccccc2)c1COc1ccc(C(=O)N2CCC[C@H]2CO)cn1` [Example 224] it was 41.9 nM.
For the compound `Cc1onc(-c2ccccc2)c1COc1ccc(C(=O)N2CCC[C@@H]2CO)cn1` [Example 225], the Ki is 20.2 nM.
As for `Cc1onc(-c2ccccc2)c1COc1ccc(C(=O)NC2CC(OCc3ccccc3)C2)cn1` (stereo not shown) [Example 226, N-(3-Benzyloxy-cyclobutyl)-6-(5-methyl-3-phenyl-isoxazol-4-ylmethoxy)-nicotinamide], the Ki is 2.6 nM.
In the case of `Cc1onc(-c2ccccc2)c1COc1ccc(C(=O)N2CCCC2C)cn1` (stereo not shown) [Example 227, [6-(5-Methyl-3-phenyl-isoxazol-4-ylmethoxy)-pyridin-3-yl]-(2-methyl-pyrrolidin-1-yl)-methanone], the Ki worked out at 48 nM.
With `Cc1onc(-c2ccccc2)c1COc1ccc(C(=O)N2CCCC2)cn1` [Example 228, [6-(5-Methyl-3-phenyl-isoxazol-4-ylmethoxy)-pyridin-3-yl]-pyrrolidin-1-yl-methanone], the Ki amounted to 37.1 nM.

The values above are taken from US8846719B2, “Isoxazolo-pyridine derivatives” (Roche Palo Alto LLC, priority 2007, dated 2014).
